# What was measured:
# Assay in all cases: Antibiotic susceptibility (MIC), automated identification system
# Format in all cases: cell-based
# NDM-1 E. coli XJ141047 = conditions: Supplementary Table 1; for MIC: Escherichia coli
# From the text: (§1) Clinical isolate strains were identified and screened by the Phoenix 100 automated bacterial identification system to rapidly detect antimicrobial resistance. Total DNA was extracted by the TIANamp Bacteria DNA Kit according to the manufacturer’s protocol. The presence of blaNDM-1 was confirmed using a diagnostic kit for NDM-1 (Puruikang Bio Inc., Shenzhen, China) based on fluorescent quantitative polymerase chain reaction assay. According to the instruction, Ct values of less than 37 were considered positive.
# NDM-1 E. coli XJ141026 = conditions: Supplementary Table 1; for MIC: Escherichia coli
# From the text: as §1
# E. coli ATCC25922 = conditions: Supplementary Table 1; for MIC: Escherichia coli, ATCC25922
# From the text: as §1
# [1] = test system: NDM-1 K. pneumoniae XJ155020; conditions: Supplementary Table 2; for MIC: Klebsiella pneumoniae
# From the text: as §1
# K. pneumoniae ATCC13883 = conditions: Supplementary Table 2; for MIC: Klebsiella pneumoniae, ATCC13883
# From the text: as §1
# [2] = test system: NDM-1 K. pneumoniae XJ155019; conditions: Supplementary Table 2; for MIC: Klebsiella pneumoniae
# From the text: as §1
# NDM-1 E. coli XJ141015 = conditions: Supplementary Table 1; for MIC: Escherichia coli
# From the text: as §1
# [3] = test system: NDM-1 K. pneumoniae XJ155017; conditions: Supplementary Table 2; for MIC: Klebsiella pneumoniae
# From the text: as §1
# [4] = test system: NDM-1 K. pneumoniae XJ155018; conditions: Supplementary Table 2; for MIC: Klebsiella pneumoniae
# From the text: as §1
SMILES,MIC (NDM-1 E. coli XJ141047) [µg/mL],susceptibility class (MIC) (NDM-1 E. coli XJ141047),MIC (NDM-1 E. coli XJ141026) [µg/mL],susceptibility class (MIC) (NDM-1 E. coli XJ141026),MIC (E. coli ATCC25922) [µg/mL],susceptibility class (MIC) (E. coli ATCC25922),MIC [1] [µg/mL],susceptibility class (MIC) [1],MIC (K. pneumoniae ATCC13883) [µg/mL],susceptibility class (MIC) (K. pneumoniae ATCC13883),MIC [2] [µg/mL],susceptibility class (MIC) [2],MIC (NDM-1 E. coli XJ141015) [µg/mL],susceptibility class (MIC) (NDM-1 E. coli XJ141015),MIC [3] [µg/mL],susceptibility class (MIC) [3],MIC [4] [µg/mL],susceptibility class (MIC) [4]
C[C@H]1COc2c(N3CCN(C)CC3)c(F)cc3c(=O)c(C(=O)O)cn1c23 [Levofloxacin],≤ 1,S,> 8,R,≤ 1,S,> 8,R,≤ 1,S,> 8,R,> 8,R,,,,
Cc1nnc(SCC2=C(C(=O)O)N3C(=O)[C@@H](NC(=O)Cn4cnnn4)[C@H]3SC2)s1 [Cefazolin],> 16,R,> 16,R,≤ 4,S,> 16,R,≤ 4,S,> 16,R,> 16,R,> 16,R,> 16,R
O=C(N[C@H](CO)[C@H](O)c1ccc([N+](=O)[O-])cc1)C(Cl)Cl [Chloramphenicol],≤ 4,S,≤ 4,S,≤ 4,S,> 16,R,≤ 4,S,> 16,R,> 16,R,> 16,R,> 16,R
CC1(C)S[C@@H]2[C@H](NC(=O)[C@H](N)c3ccccc3)C(=O)N2[C@H]1C(=O)O [Ampicillin],> 16,R,> 16,R,≤ 4,S,> 16,R,16,R,> 16,R,> 16,R,> 16,R,> 16,R
CO/N=C(\C(=O)N[C@@H]1C(=O)N2C(C(=O)[O-])=C(C[N+]3(C)CCCC3)CS[C@H]12)c1csc(N)n1 [Cefepime],> 16,R,> 16,R,≤ 2,S,> 16,R,≤ 2,S,> 16,R,> 16,R,> 16,R,> 16,R
CNC(C)C1CCC(N)C(OC2C(N)CC(N)C(OC3OCC(C)(O)C(NC)C3O)C2O)O1 (centres unmarked) [Gentamicin],> 8,R,> 8,R,≤ 2,S,≤ 2,S,≤ 2,S,≤ 2,S,≤ 2,S,≤ 2,S,≤ 2,S
C[C@H]1[C@H](NC(=O)/C(=N\OC(C)(C)C(=O)O)c2csc(N)n2)C(=O)N1S(=O)(=O)O [Aztreonam],> 16,R,> 16,R,≤ 2,S,> 16,R,≤ 2,S,> 16,R,> 16,R,> 16,R,> 16,R
NCC[C@H](O)C(=O)N[C@@H]1C[C@H](N)[C@@H](O[C@H]2O[C@H](CN)[C@@H](O)[C@H](O)[C@H]2O)[C@H](O)[C@H]1O[C@H]1O[C@H](CO)[C@@H](O)[C@H](N)[C@H]1O [Amikacin],≤ 8,S,≤ 8,S,≤ 8,S,≤ 8,S,≤ 8,S,≤ 8,S,≤ 8,S,≤ 8,S,≤ 8,S
COc1c(N2C[C@@H]3CCCN[C@@H]3C2)c(F)cc2c(=O)c(C(=O)O)cn(C3CC3)c12 [Moxifloxacin],≤ 1,S,> 4,R,≤ 1,S,> 4,R,≤ 1,S,> 4,R,> 4,R,> 4,R,> 4,R
CN(C)[C@@H]1C(O)=C(C(N)=O)C(=O)[C@@]2(O)C(O)=C3C(=O)c4c(O)cccc4[C@@](C)(O)[C@H]3C[C@@H]12 [Tetracycline],≤ 2,S,> 8,R,≤ 2,S,> 8,R,≤ 2,S,> 8,R,≤ 2,S,4,S,> 8,R

# From paper PMC6684654 (Nature Communications, 2019)
